{
  "source": "patent US20070207191A1",
  "about": "“PHARMACEUTICAL COMPOSITIONS AND METHODS TO ACHIEVE AND MAINTAIN A TARGETED AND STABLE COPPER STATUS AND PREVENT AND TREAT COPPER-RELATED CENTRAL NERVOUS SYSTEM DISEASES” (priority 2006, published 2007)",
  "key": {"[1]": {"assay": "Dissolution of ATTM crystals of different size in acidic buffer (pH 2)", "assay_type": "physicochemical", "experimental": "After 1 hour of incubation in acidic buffer, more than 50% of ATTM was found.\n• 1. ATTM purchased from Sigma-Aldrich was sieved using a 1700 micron screen. […] ATTM crystals were ground so that no crystals were larger than 50 microns. These will be referred to as small crystals. • 3. 100 mg of each type of crystal was weighed and added to separate 1.7 ml plastic centrifuge tubes. • 4. 1 ml of buffer pH 2 was added to each tube without mixing. • 5. After 1 hour, each tube was centrifuged at 14,000 rpms for 1 minute. • 6. The supernatant was removed and analyzed for ATTM content. • 7. To the pellet of each tube was added 1 ml of phosphate buffer pH 7.4 • 8. Each solution was vortex-mixed. • 9. Each tube was centrifuged at 14,000 rpms for 1 min. • 10. The supernatant from each tube was analyzed for ATTM content. Analysis: • 1. A 1 to 100 dilution of all supernatants were made in phosphate buffer pH 7.4. • 2. 2 ml of each diluted sample were added to plastic cuvettes. • 3. Absorbance was measured at 467 nm. • 4. The extinction coefficients (EC) of ATTM for each sample were calculated.\nObservations: • 1. When acid buffer was added to small crystals of ATTM, the solution turned immediately black and a sulfur odor could be detected. • 2. […] This was observed by the 1 hour incubation time point. • 3. When acid buffer was added to large crystals of ATTM, a small amount of black coloration leached from the crystal. […] Conclusions: • 1. […] In acid, un-dissolved ATTM from large crystals can be liberated with a secondary dissolution in neutral media. • 5."}, "[2]": {"assay": "Example 13: dissolution of ATTM capsule in artificial gastric fluid", "assay_type": "physicochemical", "experimental": "FIG. 1 is a plot of the dissolution profile of an ammonium tetrathromolybdate (ATTM) capsule in gastric juice in accordance with Example 13 hereof; and\nWe performed a dissolution experiment using a capsule containing 20 mg of ammonium tetrathiomolybdate plus excipient. ATTM crystals used were 500 microns or smaller. […] After, 3 hours of dissolution, black particles released from the capsule were found suspended in solution. After neutralization of the gastric media to pH 9, these black particles disappeared resulting in about 10% of ATTM being recovered.\n• 1. […] Conclusion: ˜90% of ATTM is destroyed in the stomach. Method: Material Studied • 1. Study was performed on R&D Pipex formulated capsule of ATTM. • 2. The ATTM was milled through a 500 micron sieve. • 3. The capsule contained ˜20 mg of ATTM and 180 mg of excipient. Dissolution Conditions • 1. Media: 1 liter of UPS artificial gastric fluid pH 2 • 2. Temp: 22° C. • 3. Paddle RPMs: 100 • 4. Dissolution time: 3 hours Procedure • 1. A #2 QualiCaps capsule available from Shionogi Europe, B.V. was mechanically dropped into media at time zero • 2. 1 ml of media was then collected at 1, 2, 4, 8, 16, 30, 45, 75, 120 and 180 min • 3. Following 3 hours of dissolution, the pH was raised to 9 using NaOH pellets. • 4. The media was paddled for 1 hour. • 5. After 1 hour a sample was collect for analysis Analysis • 1. 400 ul of collected media was diluted to 2 ml with phosphate buffer, pH 7 • 2. The solution was placed in a cuvette and scanned between 260 and 600 nm. • 3. Absorbance was measured at 367 nm. • 4. The extinction coefficient was calculated using Beer's law. • 5. The extinction coefficient of a reference sample in a capsule is 13500 cm^−1 M^−1 Conclusion: • 1. Any ATTM that dissolves in media at pH 2 is immediately destroyed. • 2. Some of the ATTM floated in the media as black specks following 3 hours of dissolution. • 3. After three hours when the pH of the solution was raised to pH 9, the color of the solution changed to an orange color. • 4. This presumably is stable ATTM that has dissolved. • 5. […]"}, "[3]": {"assay": "Example 14: stability of ATTM capsules after eight weeks", "assay_type": "physicochemical", "conditions": "stored at RT and ambient RH"}, "[4]": {"conditions": "infants at one month of age, supplemented 80 μg Cu/kg daily for 15 days; cited from earlier work"}, "free copper in the CNS": {"tested_on": "free copper in the CNS", "conditions": "in vivo"}, "neural tube defects": {"tested_on": "neural tube defects", "conditions": "adequate intake by mothers prior to pregnancy; cited from earlier work"}, "[5]": {"assay": "Example 5: tetrathiomolybdate crystals and capsule in simulated stomach acid", "assay_type": "physicochemical", "experimental": "Large (>1000 microns) and small (<50 microns) dark orange crystals of tetrathiomolybdate are placed in a solution of a commercially available simulated stomach acid. […] The dissolution properties of the large verses small crystals are clearly distinct. To further examine the properties of a methylcellulose capsule containing 20 mg of tetrathiomolybdate and 180 mg of excipient containing a heterogenous size range (200-800 microns) of tetrathiomolybdate crystals was examined in a dissolution chamber initially containing simulated stomach acid. The gelatin capsule dissolved within 15 minutes. Tetrathiothiomolybdate recovery was assessed by UV/Visible absorption periodically over 3 hours, a time consistent with the initiation of gastric emptying and the initial phase of postprandial absorption. […] At three hours the remaining gastric juice was made alkaline by adjusting the pH to 8-9, the solution turned orange to red and was assessed by UV/V is spectroscopy to determine the recover of tetrathiothiomolybdate, which was approximately 7% of the amount in the capsule.\nWhen the same experiment is performed with small crystals, much less than 7% of parent compound is recovered, while when the experiment is performed with large crystals much greater than 7% of parent compound is recovered."}, "[6]": {"assay": "Storage stability of tetrathiomolybdate under typical atmospheric temperature and humidity", "assay_type": "physicochemical", "conditions": "within three months", "source_text": "Tetrathiohiomolydates, under typical atmospheric condition of temperature and humidity are unstable and the active ingredient can undergo oxidation to molybdenum sulfoxide. Molydbdenum sulfoxide is not active as a copper binding agent and therapeutic agent for reduing body copper levels in humans. Tetrathiomolybdates can be expected to lose approximately 10% of its potency within three months if stored under such conditions."}, "[7]": {"tested_on": "intestinal absorption of copper", "conditions": "cited from earlier work"}, "[8]": {"assay": "Example 6: colour stability of crushed versus lyophilized tetrathiomolybdate", "assay_type": "physicochemical", "source_text": "Tetrathiothiomolybdate crystals are either crushed to a powder, that is initially orange in color, or placed in water to dissolve yielding a bright orange solution, which is filtered and lyophilized, which results in a dry powder orange in color."}, "[9]": {"conditions": "current formulations; cited from earlier work"}, "[10]": {"conditions": "oral dose of Cu^64 as copper acetate, humans; cited from earlier work"}, "[11]": {"conditions": "crystals 1700 microns or greater"}, "[12]": {"conditions": "pellet taken up in phosphate buffer pH 7.4"}, "[13]": {"conditions": "pellet taken up in phosphate buffer pH 7.4, 1 to 100 dilution"}, "[14]": {"conditions": "supernatant after 1 hour in buffer pH 2"}, "[15]": {"conditions": "supernatant after 1 hour in buffer pH 2, 1 to 100 dilution"}, "[16]": {"conditions": "50 mg immediate release capsules three times per day away from meals and beverages, Wilson's disease patients"}},
  "note": "“Also recorded” adds a separate entry of the source.",
  "data": [
    {"molecule": "[NH4+].[NH4+].[SH-].[SH-].[S]=[Mo]=[S]", "note": "[ATTM, ammonium tetrathiomolybdate]", "values": [
      {"measurement": "survival of dissolved ATTM in acid media", "setting": "[1]", "value": "does not survive in acid media"},
      {"measurement": "ATTM found after 1 hour of incubation in acidic buffer", "setting": "[1]; crystals 50 microns or less", "value": "no ATTM was found"},
      {"measurement": "dissolution behaviour in acidic buffer (pH 2)", "setting": "[1]; crystals 50 microns or less", "value": "dissolved rapidly; also recorded: dissolves in Acid media but soon forms an insoluble precipitate"},
      {"measurement": "ATTM found after 1 hour of incubation in acidic buffer", "setting": "[1]; [11]", "value": "more than 50%"},
      {"measurement": "dissolution behaviour in acidic buffer (pH 2)", "setting": "[1]; [11]", "value": "dissolved slowly; also recorded: forms a black coating which seems to resist dissolution"},
      {"measurement": "ATTM recovered after neutralization of the gastric media to pH 9", "setting": "[2]; after 3 hours of dissolution", "value": "about 10%"},
      {"measurement": "ATTM destroyed", "setting": "[2]; artificial gastric fluid over three hours", "value": "~90", "unit": "%"},
      {"measurement": "ATTM recovered dissolved in the gastric dissolution medium", "setting": "[2]; artificial gastric fluid pH 2, 22° C., up to 3 hours, crystals 500 microns or smaller", "value": "No ATTM was recovered; also recorded: No ATTM was found dissolved"},
      {"measurement": "stability after 8-Weeks", "setting": "[3]", "value": "completely stable"}
    ]},
    {"molecule": "[NH4+].[NH4+].[SH-].[SH-].[S]=[Mo]=[S]", "note": "[Large Crystal, ammonium tetrathiomolybdate]", "values": [
      {"measurement": "Extinction Coefficient", "setting": "[1]; [12]", "value": "7,000"},
      {"measurement": "Absorbance at 467", "setting": "[1]; [13]", "value": 0.310},
      {"measurement": "Extinction Coefficient", "setting": "[1]; [14]", "value": 0},
      {"measurement": "Absorbance at 467", "setting": "[1]; [15]", "value": 0}
    ]},
    {"molecule": "[NH4+].[NH4+].[SH-].[SH-].[S]=[Mo]=[S]", "note": "[Small Crystal, ammonium tetrathiomolybdate]", "values": [
      {"measurement": "Extinction Coefficient", "setting": "[1]; [12]", "value": 0},
      {"measurement": "Absorbance at 467", "setting": "[1]; [13]", "value": 0},
      {"measurement": "Extinction Coefficient", "setting": "[1]; [14]", "value": 0},
      {"measurement": "Absorbance at 467", "setting": "[1]; [15]", "value": 0}
    ]},
    {"molecule": "O=S(=O)([O-])[O-].[Cu+2]", "note": "[copper sulfate]", "values": [
      {"measurement": "Mean (+SD) copper absorption", "setting": "[4]", "value": "74.8+15.2%"}
    ]},
    {"molecule": "CC(C)(S)[C@@H](N)C(=O)O", "note": "[d-pencillamine, d-penicillamine]", "values": [
      {"measurement": "levels of free copper in the CNS", "setting": "free copper in the CNS", "value": "increase the levels of free copper in the CNS"}
    ]},
    {"molecule": "Nc1nc2ncc(CNc3ccc(C(=O)N[C@@H](CCC(=O)O)C(=O)O)cc3)nc2c(=O)[nH]1", "note": "[folic acid]", "values": [
      {"measurement": "reduction of the incidence of NTDs", "setting": "neural tube defects", "value": "up to 70%"}
    ]},
    {"molecule": "[SH-].[SH-].[S]=[Mo]=[S]", "note": "[tetrathiomolybdate]", "values": [
      {"measurement": "detection in simulated gastric samples, removed and neutralized", "setting": "[5]; any time point over three hours, UV/Visible absorption", "value": "not detectable"},
      {"measurement": "capsule dissolution time", "setting": "[5]; capsule with 20 mg tetrathiomolybdate and 180 mg excipient, simulated stomach acid", "value": "≤ 15", "unit": "min"},
      {"measurement": "behaviour in simulated stomach acid", "setting": "[5]; large (>1000 microns) crystals", "value": "remain relatively intact"},
      {"measurement": "behaviour in simulated stomach acid", "setting": "[5]; small (<50 microns) crystals", "value": "form a disaggregate cloudy black solution"},
      {"measurement": "loss of potency", "setting": "[6]", "value": "approximately 10%"},
      {"measurement": "blocking of copper absorption compared with zinc", "setting": "[7]; human, in vivo", "value": "more effective blocker of copper absorption than zinc"},
      {"measurement": "colour stability", "setting": "[8]; crushed crystals, nitrogen overlay, room temperature, closed tube", "value": "slowly turn black within a few day"},
      {"measurement": "colour stability", "setting": "[8]; lyophilized dry powder, similar conditions", "value": "remains orange for over a month"},
      {"measurement": "colour stability", "setting": "[8]; protected from atmosphere and moisture by covering with mineral", "value": "remains orange (i.e. not oxidized) for over a month"}
    ]},
    {"molecule": "NCCNCCNCCN", "note": "[trientine]", "values": [
      {"measurement": "levels of free copper in the CNS", "setting": "free copper in the CNS", "value": "increase the levels of free copper in the CNS"}
    ]},
    {"molecule": "CC(=O)[O-].CC(=O)[O-].[Zn+2]", "note": "[zinc acetate]", "values": [
      {"measurement": "stomach irritability", "setting": "[9]", "value": "~10 % of patients"},
      {"measurement": "mean Cu^64 uptake", "setting": "[7]; [16]", "value": "0.82 % of the administered dose"},
      {"measurement": "mean copper balance", "setting": "[7]; [16]", "value": -0.44, "unit": "mg/day"},
      {"measurement": "control of copper", "setting": "[7]; once daily dosing of immediate release capsules", "value": "does not provide adequate control of copper"}
    ]},
    {"molecule": "[Zn]", "note": "[zinc]", "values": [
      {"measurement": "copper balance induced, average", "setting": "[7]; Wilson's patients, from the two week point", "value": "−0.35", "unit": "mg daily"},
      {"measurement": "time to achieve intestinal metallothionein induction and a negative copper balance", "setting": "[7]; Wilson's patients", "value": "approximately two"},
      {"measurement": "time to bring urine copper and nonceruloplasmin plasma copper down to subtoxic levels", "setting": "[7]; zinc therapy", "value": "six"}
    ]},
    {"molecule": "copper acetate", "values": [
      {"measurement": "oral dose absorbed from the gastrointestinal tract", "setting": "[10]", "value": "about 65%"},
      {"measurement": "oral dose absorbed from the gastrointestinal tract, range", "setting": "[10]", "value": "15-97%"}
    ]}
  ]
}
